The source of these data is US12077503B2, “Substituted cyclic amides and their use as herbicides” (FMC CORPORATION, priority 2015, dated 2024).

Assay type in all cases: in vivo
Assay [1] relates to barnyardgrass (Echinochloa crus-galli). Kind of assay: Test A preemergence. As to conditions: Echinochloa crus-galli, pre-emergence, 240 h. The method, boiled down:
(§1)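 Seeded soil received test chemicals as a preemergence directed spray, and seedlings at one to two leaves, 2–10 cm tall, received them postemergence, in a non-phytotoxic, surfactant-containing solvent mixture. Pots were held in a greenhouse for approximately 10 d, then rated for injury from 0, no effect, to 100, complete control.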

In assay [2] the test system is ryegrass, Italian (Italian ryegrass, Lolium multiflorum). Kind of assay: Test A preemergence. The conditions noted are these: Lolium multiflorum, pre-emergence, 240 h. The method, boiled down: as §1
The test system of assay [3] is ragweed (common ragweed, Ambrosia elatior). In words: Test A preemergence. The conditions noted are these: Ambrosia artemisiifolia, pre-emergence, 240 h. The method, boiled down:
as §1

The subject of assay [4] is giant foxtail (Setaria faberii). In words: Test A preemergence. As to conditions: Setaria faberi, pre-emergence, 240 h. The method, boiled down:
as §1

For assay [5], the system named is Kochia (Kochia scoparia). Kind of assay: Test A preemergence. As to conditions: Bassia scoparia, pre-emergence, 240 h. The method, boiled down:
as §1

In assay [6] the test system is pigweed (Amaranthus retroflexus). Kind of assay: Test A preemergence. As to conditions: Amaranthus retroflexus, pre-emergence, 240 h.
Assay [7] has as its system Galium (catchweed bedstraw, Galium aparine). In words: Test A postemergence. As to conditions: Galium, post-emergence, 240 h, 125 g ai/ha, postemergence, visual injury rating after approximately 10 d; read-out: Galium plant response rating (0 to 100 scale, 0 no effect, 100 complete control). Put shortly:
as §1

Assay [8] concerns barnyardgrass (Echinochloa crus-galli). In words: Test A postemergence. As to conditions: Echinochloa crus-galli, post-emergence, 240 h, 125 g ai/ha, postemergence, visual injury rating after approximately 10 d; read-out: Barnyardgrass plant response rating (0 to 100 scale, 0 no effect, 100 complete control). The method, boiled down: as §1
In assay [9] the test system is ryegrass, Italian (Italian ryegrass, Lolium multiflorum). In words: Test A postemergence. As to conditions: Lolium multiflorum, post-emergence, 240 h, 125 g ai/ha, postemergence, visual injury rating after approximately 10 d; read-out: Ryegrass, Italian plant response rating (0 to 100 scale, 0 no effect, 100 complete control). Put shortly: as §1
For assay [10], the system named is blackgrass (Alopecurus myosuroides). In words: Test A postemergence. The conditions noted are these: Alopecurus myosuroides, post-emergence, 240 h, 125 g ai/ha, postemergence, visual injury rating after approximately 10 d; read-out: Blackgrass plant response rating (0 to 100 scale, 0 no effect, 100 complete control). Put shortly:
as §1

Assay [11] relates to corn (Zea mays). Kind of assay: Test A postemergence. The conditions noted are these: Zea mays, post-emergence, 240 h, 125 g ai/ha, postemergence, visual injury rating after approximately 10 d; read-out: Corn plant response rating (0 to 100 scale, 0 no effect, 100 complete control). Put shortly:
as §1

For assay [12], the system named is ragweed (common ragweed, Ambrosia elatior). In words: Test A postemergence. The conditions noted are these: Ambrosia artemisiifolia, post-emergence, 240 h, 125 g ai/ha, postemergence, visual injury rating after approximately 10 d; read-out: Ragweed plant response rating (0 to 100 scale, 0 no effect, 100 complete control). The method, boiled down:
as §1

Assay [13] has as its system giant foxtail (Setaria faberii). In words: Test A postemergence. The conditions noted are these: Setaria faberi, post-emergence, 240 h, 125 g ai/ha, postemergence, visual injury rating after approximately 10 d; read-out: Foxtail, Giant plant response rating (0 to 100 scale, 0 no effect, 100 complete control). Put shortly:
as §1

Assay [14] deals with wheat (Triticum aestivum). Kind of assay: Test A postemergence. As to conditions: Triticum aestivum, post-emergence, 240 h, 125 g ai/ha, postemergence, visual injury rating after approximately 10 d; read-out: Wheat plant response rating (0 to 100 scale, 0 no effect, 100 complete control). Put shortly: as §1
Assay [15] has as its system Kochia (Kochia scoparia). In words: Test A postemergence. As to conditions: Bassia scoparia, post-emergence, 240 h, 125 g ai/ha, postemergence, visual injury rating after approximately 10 d; read-out: Kochia plant response rating (0 to 100 scale, 0 no effect, 100 complete control). The method, boiled down: as §1

Turning to `COc1c(F)ccc([C@H]2CN(C)C(=O)[C@@H]2C(=O)Nc2ccccc2F)c1Cl` [Compound 892], the pest or weed control at 125 g/ha worked out at 100% in assay [1] (125 g ai/ha, preemergence, 0 to 100 scale where 0 is no effect and 100 is complete control, read-out: Barnyardgrass plant response rating); 30% in [2] (125 g ai/ha, preemergence, 0 to 100 scale where 0 is no effect and 100 is complete control, read-out: Ryegrass, Italian plant response rating); 20% in assay [3] (125 g ai/ha, preemergence, 0 to 100 scale where 0 is no effect and 100 is complete control, read-out: Ragweed plant response rating); 100% in assay [4] (125 g ai/ha, preemergence, 0 to 100 scale where 0 is no effect and 100 is complete control, read-out: Foxtail, Giant plant response rating); 70% in assay [5] (125 g ai/ha, preemergence, 0 to 100 scale where 0 is no effect and 100 is complete control, read-out: Kochia plant response rating); 0% in [6] (125 g ai/ha, preemergence, 0 to 100 scale where 0 is no effect and 100 is complete control, read-out: Pigweed plant response rating). Besides, the pest or weed control at 125 g/ha in assay [7] amounted to 20%; in assay [8], 90%; in assay [9] it was 60%; in assay [10], 0%; in assay [12], 0%; in [13], 90%. Moreover, the pest or weed control at 125 g/ha in assay [15] was determined as 40%. Besides, the pest or weed control at 500 g/ha stood at 100% in assay [1] (500 g ai/ha, Preemergence, visual injury vs untreated controls after approximately 10 d, read-out: Barnyardgrass plant response rating (0 to 100 scale where 0 is no effect and 100 is complete control)); 90% in assay [2] (500 g ai/ha, Preemergence, visual injury vs untreated controls after approximately 10 d, read-out: Ryegrass, Italian plant response rating (0 to 100 scale where 0 is no effect and 100 is complete control)); 50% in [3] (500 g ai/ha, Preemergence, visual injury vs untreated controls after approximately 10 d, read-out: Ragweed plant response rating (0 to 100 scale where 0 is no effect and 100 is complete control)); 100% in assay [4] (500 g ai/ha, Preemergence, visual injury vs untreated controls after approximately 10 d, read-out: Foxtail, Giant plant response rating (0 to 100 scale where 0 is no effect and 100 is complete control)); 90% in assay [5] (500 g ai/ha, Preemergence, visual injury vs untreated controls after approximately 10 d, read-out: Kochia plant response rating (0 to 100 scale where 0 is no effect and 100 is complete control)); 40% in assay [6] (500 g ai/ha, Preemergence, visual injury vs untreated controls after approximately 10 d, read-out: Pigweed plant response rating (0 to 100 scale where 0 is no effect and 100 is complete control)). Moreover, the plant injury at 125 g/ha in assay [11] and in assay [14] was 0% in each case.
